Holding throughout (assay type): physicochemical
Test [1] is described as follows: X-ray-induced release of coumarin reporter 7-Deacca from Compounds 1-9 in phosphate buffer (UPLC-MS). The following applies: for release efficiency (in words): NAP esters; for reactivity to radiation reduction: ortho-/para-substituted esters versus meta-substituted ones (Compounds 2, 5, 8); for release efficiency in KNO3 solution relative to control: 10 mM KNO3 added. As for the experimental part:
(§1) Pretreated solution (approx. 1-2 mL) was sealed in glass vials with rubber stoppers and metal caps. All tubular radiation experiments were pretreated using the freeze-thaw method to remove dissolved oxygen from the solution. The solution was frozen, then vacuum was applied for several minutes until thawed to room temperature.
X-ray irradiation was performed using an X-ray generator (RS2000 Pro 225, 225 kV, 17.7 mA; Rad Source Technologies, Inc).
(§2) Tubes were irradiated with X-rays, with a total dose of 0-60 Gy, at a rate of 2 Gy/min. Cells were irradiated with X-rays at different doses at a rate of 2 Gy/min.
• 1. Standard preparation and calibration curves. The standard (coumarin, MeRho or MMAE) was dissolved in DMSO solution to make a 10 mM stock solution. The stock was diluted with deionized water to obtain solutions of suitable concentration gradients. These standard solutions were analyzed by UPLC-MS to generate calibration curves for the respective standard compounds. The peak areas of the target compounds were within the linear range of the curves. The relative standard deviation for duplicate injections of each standard solution was less than 5.0%. • 2. Analysis and calculation. After different treatments, the reaction mixtures were analyzed by ultra-performance liquid chromatography-mass spectrometry. The amount of cargo was calculated as equivalents of their respective external standard.
(§3) As a representative example, the detailed procedure for X-ray-induced reduction of Compound 1 is described below. A stock solution of Compound 1 (10 mM in DMSO) was diluted in PB (0.02 M, pH 7.4) to a final concentration of 10 µM. Solutions were deoxygenated using the aforementioned deoxygenation step prior to X-ray irradiation from 0 to 60 Gy. Reaction mixtures were analyzed using UPLC and a fluorescence spectrometer, and amount of product release was quantified via standard curves.
The elution program for Compounds 1-9 and NAPC-MeRho was Method a: H2O + 5% ACN (0 min)-95% H2O + 5% ACN (0.2 min)-5% H2O + 95% ACN (2.8 min)-5% H2O + 95% ACN (2.9 min)-95% H2O + 5% ACN (3.0 min)-95% H2O + 5% ACN (4.0 min). Injection volume: 10 µL.
10 mM KNO3 was added to the radiation system of Compound 1 (10 µM, in PB, pH 7.4) Reactivity test (10 µM, 0.1% DMSO): Determination of 7-Deacca release in PB (20 mM, pH 7.4) after deoxygenation and 60 Gy X-ray irradiation. Encouragingly, UPLC-MS detected coumarin release (FIG. 32), with a release efficiency of 33.5 ± 9.1% (FIG. 4), resulting in 55.8 nM/Gy.
7-Deacca was designed to be protected by a series of molecules Compounds 2-9 with pyridyl, quinolinyl, and N-methylpyridyl groups. Stock solutions of Compounds 2-9 (10 mM in DMSO) were diluted in PB (10 µM, 0.1% DMSO), then irradiated with 60 Gy X-rays, and analyzed by UPLC-MS to determine the yield of free 7-Deacca (FIG. 35).
10 mM HCOONa or KNO3 was added to the radiation system of Compound 7 (10 µM, in PB, pH 7.4). […] It can be explained that radicalized HCOONa in water reacts with ·OH and hydrogen radicals (·H) to generate carboxylate radicals […], which is another reducing agent with a standard electrode potential of -1.90 V, which may also be a possible explanation for the difference in its radiation reduction efficiency. Compared to the quinolinyl moiety with higher electron density (lower reduction potential), the positive charge on the pyridyl moiety with lower electron density (higher reduction potential) has higher affinity for the negatively charged e^-aq, resulting in the highest radiation reduction efficiency among them for the pyridyl moiety.

Test [2] in a line: Competition reaction of Compound 10 with prior-art RPGs (Compounds 11, 12, 13) under 60 Gy X-ray. Particulars: each component 10 µM in PB pH 7.4, deoxygenated, versus Compounds 11, 12, 13. The protocol:
(§4) Method B was used for elution of Compound 10, mixtures of Compound 7 with other RPGs, and mixtures of Compound 10 with other rpg: 95% H2O + 5% ACN (0 min)-95% H2O + 5% ACN (0.2 min)-70% H2O + 30% ACN (3.0 min)-70% H2O + 30% ACN (3.6 min)-95% H2O + 5% ACN (3.7 min)-95% H2O + 5% ACN (5.0 min). Injection volume: 10 µL.
The inventors mixed the reported RPGs with Compound 10, providing solutions of [10+11], [10+12], [10+13], respectively (each component: 10 µM in PB, pH 7.4). The solutions were deoxygenated and irradiated with 60 Gy X-rays, and their release efficiencies were analyzed by UPLC-MS (FIG. 11) and summarized in FIG. 12. The lower part of the bars and the upper part of the bars represent the activation ratio of Compound 10 and each competing component in the irradiation system, respectively.

A short description of test [3]: X-ray-induced AMC release from Compound 10 in PB (UPLC). Particulars: 10 µM, 0.02 M PB pH 7.4, 0-60 Gy. The protocol: as §1, §2, §3, §4
The inventors synthesized Compound 10 (NAPC-AMC) containing NAP-protected 7-amino-4-methylcoumarin (AMC). […]

Where [4] appears, read: 10 µM, 20 Gy irradiation (control conditions).

As to `CCN(CC)c1ccc2cc(C(=O)OCc3cccc[n+]3C)c(=O)oc2c1` [Compound 9, (2-((7-(diethylamino)-2-oxo-2H-chromene-3-carbonyl)oxy)methyl)-1-methylpyridin-1-ium], in test [1] (60 Gy X-ray), the “release efficiency (in words)” value is “high release efficiencies” and the “reactivity to radiation reduction” value was “more reactive”.

For the compound `CCN(CC)c1ccc2cc(C(=O)OCc3ccncc3)c(=O)oc2c1` [Compound 1, Pyridin-4-ylmethyl-7-(diethylamino)-2-oxo-2H-chromene-3-carboxylate], the “release efficiency (coumarin / 7-Deacca release)” value in test [1] (10 µM, 0.1% DMSO, PB 20 mM pH 7.4, deoxygenated, 60 Gy X-ray) is recorded as 33.5 ± 9.1%. Moreover, the coumarin release efficiency in test [1] (10 µM, 20 Gy + 10 mM HCO2Na) is recorded as 27.3%; in test [1] (10 µM, 20 Gy + 10 mM KNO3), 1.3%; in test [1] (setting [4]), 16.7%. The “release efficiency in KNO3 solution relative to control” value in test [1] (10 µM in PB pH 7.4) is reported as “significantly reduced”. Besides, in test [1] (from release efficiency at 60 Gy, 10 µM in PB pH 7.4), the “release per radiation dose” value amounted to 55.8 nM/Gy. Also, the “reactivity to radiation reduction” value in test [1] (60 Gy X-ray) is given as “more reactive”.

Consider `Cc1cc(=O)oc2cc(NC(=O)OCc3cc[n+](C)cc3)ccc12` [Compound 10], for which the “additional activation versus previously reported structures in competition” value in test [2] is 20-40%. The “G (AMC release versus radiation dose)” value in test [3] came to 145 nM/Gy.

With `CCN(CC)c1ccc2cc(C(=O)OCc3ccccn3)c(=O)oc2c1` [Compound 3, Pyridin-2-ylmethyl-7-(diethylamino)-2-oxo-2H-chromene-3-carboxylate], the “reactivity to radiation reduction” value in test [1] (60 Gy X-ray) is reported as “more reactive”.

Consider `CCN(CC)c1ccc2cc(C(=O)OCc3cc[n+](C)cc3)c(=O)oc2c1` [Compound 7, (4-((7-(diethylamino)-2-oxo-2H-chromene-3-carbonyl)oxy)methyl)-1-methylpyridin-1-ium], for which the coumarin release efficiency in test [1] (10 µM, 20 Gy + 10 mM HCO2Na) amounted to 53.8%; in test [1] (10 µM, 20 Gy + 10 mM KNO3) it was 0.0%; in test [1] (setting [4]), 27.6%. Also, the “reduction yield on addition of HCOONa” value in test [1] (10 mM HCOONa added, 10 µM in PB pH 7.4) is “approximately doubled”. Besides, the “release efficiency in KNO3 solution relative to control” value in test [1] (10 µM in PB pH 7.4) is reported as “significantly reduced”. In test [1] (60 Gy X-ray), the “release efficiency (in words)” value is “high release efficiencies”. Also, the “G-value (release of the reporter molecule)” value in test [1] (X-ray dose gradient 0 to 60 Gy, UPLC) is recorded as 140 nM/Gy. In test [1] (60 Gy X-ray), the “reactivity to radiation reduction” value is “more reactive”.

Turning to `CCN(CC)c1ccc2cc(C(=O)OCc3ccnc4ccccc34)c(=O)oc2c1` [Compound 4, Quinolin-4-ylmethyl-7-(diethylamino)-2-oxo-2H-chromene-3-carboxylate], in test [1] (60 Gy X-ray), the “reactivity to radiation reduction” value is “more reactive”.

On to `CCN(CC)c1ccc2cc(C(=O)OCc3ccc4ccccc4n3)c(=O)oc2c1` [Compound 6, Quinolin-2-ylmethyl-7-(diethylamino)-2-oxo-2H-chromene-3-carboxylate], for which the “reactivity to radiation reduction” value in test [1] (60 Gy X-ray) is given as “more reactive”.

Source of the values: patent publication EP4733301A1 (priority 2023, dated 2025).
